Where two headings read alike, the source gives them in different places. Marks after values point to notes of the source that are not given here. Where no end group is shown, it is not given here. [ ]: non-standard residue; d: D form. The star is where a group is joined. Dnp = O=[N+]([O-])c1ccc(*)c([N+](=O)[O-])c1; 2Abz = Nc1ccccc1C(=O)O
How the values were obtained:
[1] = target: T1, cathepsin B (Homo sapiens, UniProt P07858); test: Selective hydrolysis by cathepsins, fluorescence (FIG. 20); assay type: biochemical; parameters: cathepsins B and L derived from a human liver; purchased Sigma-Aldrich Chemical Co; host or cells: human liver; details: inventors' earlier research on DBDY-(INH)2; conditions not given
Experimental: (§1) The reaction was performed under alkaline conditions.
(§2) The results of experiments were illustrated in FIG. 20. Since the hydrolysis by cathepsin B was faster than the hydrolyses by papain and chymopapain, the reaction was performed with a substrate (concentration: 1.0 μM) and a protease (concentration: […]) of which the concentrations were set lower than those in Experimental Example 2 (substrate (concentration: 2.5 μM) and protease (concentration: 0.1 μM) reacted for two hours) for 30 minutes in FIG. 20. C1, C2, CB, CL, and CS represented on an X-axis respectively denote papain, chymopapain, cathepsin B, cathepsin L, and cathepsin S. Each experiment was repeated at least three times.

[2] = target: T2, cathepsin L (Homo sapiens, UniProt P07711); test: as above; assay type: biochemical; details: inventors' earlier research on DBDY-(INH)2; conditions not given
T2 construct: cathepsins B and L derived from a human liver; purchased Sigma-Aldrich Chemical Co; host or cells: human liver
T2 sequence (P07711 114-333): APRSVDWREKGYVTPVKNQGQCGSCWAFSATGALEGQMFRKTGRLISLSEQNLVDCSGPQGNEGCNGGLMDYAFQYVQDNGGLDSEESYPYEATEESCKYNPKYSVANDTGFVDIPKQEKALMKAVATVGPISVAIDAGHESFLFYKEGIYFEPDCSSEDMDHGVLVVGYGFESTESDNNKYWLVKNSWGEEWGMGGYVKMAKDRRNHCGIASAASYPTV
Experimental: as §1, §2

[3] = target: T3, dispase (Paenibacillus polymyxa, UniProt P29148); test: Protease-catalyzed hydrolysis, restored DBDY fluorescence (selectivity, FIGS. 11-19); assay type: biochemical, bacillus polymyxa; details: substrate 2.5 μM, protease 0.1 μM, two hours; hydrolysate amino acid-INH
T3 construct: dispase derived from bacillus polymyxa; purchased Sigma-Aldrich Chemical Co; host or cells: Bacillus polymyxa
T3 sequence (P29148 287-590): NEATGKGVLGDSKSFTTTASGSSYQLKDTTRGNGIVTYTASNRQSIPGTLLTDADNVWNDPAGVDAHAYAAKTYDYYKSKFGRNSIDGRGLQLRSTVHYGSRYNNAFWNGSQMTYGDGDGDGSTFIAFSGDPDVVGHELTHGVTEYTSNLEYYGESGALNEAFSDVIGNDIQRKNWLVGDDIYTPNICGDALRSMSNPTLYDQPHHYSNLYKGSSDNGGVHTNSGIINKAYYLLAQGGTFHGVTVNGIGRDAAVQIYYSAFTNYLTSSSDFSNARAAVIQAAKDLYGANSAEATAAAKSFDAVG
Experimental: as §1
The hydrolysis reaction was performed for two hours. […] Each experiment was repeated at least three times.

[4] = target: T4, thermolysin (Bacillus thermoproteolyticus, UniProt P00800); details: substrate 2.5 μM, protease 0.1 μM, two hours; hydrolysate amino acid-INH
T4 sequence (P00800 233-548): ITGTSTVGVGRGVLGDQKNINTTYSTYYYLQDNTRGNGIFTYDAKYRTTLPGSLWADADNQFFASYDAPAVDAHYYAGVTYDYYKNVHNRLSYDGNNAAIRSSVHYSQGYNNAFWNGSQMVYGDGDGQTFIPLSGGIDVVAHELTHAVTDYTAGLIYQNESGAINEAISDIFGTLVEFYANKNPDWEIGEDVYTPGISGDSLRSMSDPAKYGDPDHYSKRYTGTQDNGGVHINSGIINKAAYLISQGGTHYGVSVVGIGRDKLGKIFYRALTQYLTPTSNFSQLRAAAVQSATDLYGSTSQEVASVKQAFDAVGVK
Experimental: (§3) For the meaningful comparison of proteases, a hydrolysis reaction was performed under the optimum conditions as reported in other documents (regarding chymotrypsin, subtilisin, thermolysin and pepsin, refer to R. Beynon, J. S. Bond, Proteolytic Enzymes (Second Edition), Oxford University Press, 2001, pp. 295-316; regarding trypsin, proteinase K, carboxy peptidase A, collagenase, dispase, aspergillopepsin, papain, chymopapain, bromelain, cathepsin B, cathepsin L, and cathepsin S, refer to the catalog of Sigma-Aldrich Corporation).
(§4) Before the reaction, the mixtures of the reaction buffer solutions and proteases were previously incubated for 30 minutes in a water bath in which the temperature was adjusted to an analysis temperature. The hydrolysis reaction was initiated by adding a substrate dissolved in DMSO. The volume of the added substrate solution was controlled such that the final concentration of DMSO was lower than 1.5% (v/v).
The λex and λem were respectively adjusted to 284 nm and 410 nm with respect to papain, chymopapain, bromelain, cathepsins, aspergillopepsin and pepsin, and the λex and λem were respectively adjusted to 320 nm and 410 nm with respect to chymotrypsin, trypsin, subtilisin, proteinase K, thermolysin, carboxypeptidase A, collagenase and dispase. The reaction was performed under alkaline conditions.
The fluorescence measured at the end of the reaction was expressed as a final fluorescence.
The initial concentrations of each substrate and protease were respectively set to 2.5 μM and 0.1 μM. The hydrolysis reaction was performed for two hours. Reference numbers on an X-axis denoted the following: C1=papain; C2=chymopapain; C3=bromelain; S1=chymotrypsin; S2=trypsin; S3=subtilisin; S4=proteinase K; M1=thermolysin; M2=carboxypeptidase A; M3=dispase; M4=collagenase; A1=pepsin; and A2=aspergillopepsin. Each experiment was repeated at least three times.

[5] = target: T5, papain (Carica papaya, UniProt P00784); test: Degree of hydrolysis by protease (Table 3); assay type: biochemical, papaya latex; details: after 2 hours; protease 10 μM; substrate 0.2 mM (G1-G3, L1-L3) or 0.1 mM (G4, L4); hydrolysate INH
T5 construct: papain and chymopapain derived from papaya latex; purchased Sigma-Aldrich Chemical Co; host or cells: papaya latex
T5 sequence (P00784 134-345): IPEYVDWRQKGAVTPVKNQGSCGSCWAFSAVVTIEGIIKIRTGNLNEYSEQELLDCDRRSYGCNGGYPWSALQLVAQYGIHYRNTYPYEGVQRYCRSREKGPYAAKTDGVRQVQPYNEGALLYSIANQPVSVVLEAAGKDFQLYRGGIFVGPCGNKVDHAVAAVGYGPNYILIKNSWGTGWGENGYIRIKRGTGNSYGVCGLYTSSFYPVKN
Experimental: (§5) A hydrolysate was measured using a HPLC system.

[6] = target: T4, thermolysin; details: after 2 hours; protease 10 μM; substrate 0.2 mM (G1-G3, L1-L3) or 0.1 mM (G4, L4); n.d. = no hydrolysis was detected; hydrolysate INH
Experimental: as §3, §4
A hydrolysate was measured using a HPLC system. In order to prepare a sample, a hydrolysis reaction was terminated by adding 2% (v/v) 1M HCl with respect to a serine protease, cysteine protease and metalloprotease, and adding 1M NaOH with respect to an aspartic protease. The separation was performed using the mixture of 10 mM-ammonium bicarbonate and acetonitrile as an eluent in C-18 column (particle size: 5 μm, 250 mm×4.6 mm, pore size: 80 Å, Phenomenex, USA). The elution was performed for 15 minutes, while the linear gradient of acetonitrile was increased from 0 to 60%. The flow rate and separation temperature of the eluent were maintained at 1 mL min^−1 and 35° C. The hydrolysate was detected at a wavelength of 254 nm.
Based on the report that a hydrophobic amino acid such as phenylalanine was preferred at a P2 position in most of the papain-like cysteine proteases, Boc-aromatic amino acid-Gly-INH and Boc-aromatic amino acid-Lys-INH were prepared in particular, and experimented as a substrate with respect to chymotrypsin, trypsin, papain, pepsin and thermolysis.

[7] = target: T6, pepsin (Sus scrofa, UniProt P00791); test: Degree of hydrolysis by protease (Table 3); assay type: biochemical, pig; details: after 2 hours; protease 10 μM; substrate 0.2 mM (G1-G3, L1-L3) or 0.1 mM (G4, L4); n.d. = no hydrolysis was detected; hydrolysate INH
T6 construct: pepsin derived from pig gastric mucosa; purchased Sigma-Aldrich Chemical Co; host or cells: pig gastric mucosa
T6 sequence (P00791 60-385): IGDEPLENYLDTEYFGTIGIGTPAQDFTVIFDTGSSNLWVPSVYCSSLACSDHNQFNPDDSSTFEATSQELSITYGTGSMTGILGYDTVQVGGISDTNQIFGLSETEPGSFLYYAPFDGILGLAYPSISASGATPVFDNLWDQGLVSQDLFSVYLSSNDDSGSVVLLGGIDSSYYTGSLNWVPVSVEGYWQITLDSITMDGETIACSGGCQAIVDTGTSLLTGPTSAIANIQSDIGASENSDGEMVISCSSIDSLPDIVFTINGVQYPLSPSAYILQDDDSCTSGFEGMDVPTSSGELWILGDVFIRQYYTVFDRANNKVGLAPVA
Experimental: as §5

[8] = target: T7, chymotrypsin (Bos taurus, UniProt P00766); test: Degree of hydrolysis by protease (Table 3); assay type: biochemical, bovine; details: after 2 hours, protease 10 μM, substrate 0.2 mM (G1-G3, L1-L3) or 0.1 mM (G4, L4), n.d. = no hydrolysis was detected, hydrolysate Gly-INH (G), Lys-INH (L1-L3)
T7 construct: chymotrypsin and trypsin derived from fetal bovine pancreas; purchased Sigma-Aldrich Chemical Co; host or cells: bovine pancreas
Experimental: as §5

[9] = target: T8, trypsin (Bos taurus, UniProt P00760); test: Degree of hydrolysis by protease (Table 3); assay type: biochemical, bovine; details: after 2 hours; protease 10 μM; substrate 0.2 mM (G1-G3, L1-L3) or 0.1 mM (G4, L4); n.d. = no hydrolysis was detected; hydrolysate INH
T8 construct: chymotrypsin and trypsin derived from fetal bovine pancreas; purchased Sigma-Aldrich Chemical Co; host or cells: bovine pancreas
T8 sequence (P00760 24-246): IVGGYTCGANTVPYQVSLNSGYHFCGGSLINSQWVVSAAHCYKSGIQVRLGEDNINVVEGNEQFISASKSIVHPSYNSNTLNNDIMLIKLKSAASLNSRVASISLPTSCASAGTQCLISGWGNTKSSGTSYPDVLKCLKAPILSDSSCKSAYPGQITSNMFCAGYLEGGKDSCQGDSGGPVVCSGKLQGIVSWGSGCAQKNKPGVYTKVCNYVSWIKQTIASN
Experimental: as §5

[10] = target: T1, cathepsin B; details: reported for other substances, cited from earlier work

Row | Compound | sensitivity for dispase (hydrolysis, increased fluorescence) [3] | sensitivity for thermolysin (hydrolysis, increased fluorescence) [4] | degree of hydrolysis by Papain [5] | degree of hydrolysis by Chymotrypsin [8] | also measured
1 | CC(C)(C)OC(=O)NC(Cc1ccc(O)c(-c2cc(CC(NC(=O)OC(C)(C)C)C(=O)NNC(=O)c3ccncc3)ccc2O)c1)C(=O)NNC(=O)c1ccncc1 (stereo not shown) [DBDY-(INH)2, reference compound] | – | – | – | – | hydrolysis by cathepsin B [1]: not hydrolyzed; hydrolysis by cathepsin L [2]: not hydrolyzed
2 | CC[C@H](C)[C@H](NC(=O)C(Cc1ccc(O)c(-c2cc(CC(NC(=O)OC(C)(C)C)C(=O)N[C@H](C(=O)NNC(=O)c3ccncc3)[C@@H](C)CC)ccc2O)c1)NC(=O)OC(C)(C)C)C(=O)NNC(=O)c1ccncc1 (stereo partly shown) [DBDY-(Ile-INH)2] | high sensitivity | high sensitivity | – | – | –
3 | CC(C)C[C@H](NC(=O)C(Cc1ccc(O)c(-c2cc(CC(NC(=O)OC(C)(C)C)C(=O)N[C@@H](CC(C)C)C(=O)NNC(=O)c3ccncc3)ccc2O)c1)NC(=O)OC(C)(C)C)C(=O)NNC(=O)c1ccncc1 (stereo partly shown) [DBDY-(Leu-INH)2] | high sensitivity | high sensitivity | – | – | –
4 | CSCC[C@H](NC(=O)C(Cc1ccc(O)c(-c2cc(CC(NC(=O)OC(C)(C)C)C(=O)N[C@@H](CCSC)C(=O)NNC(=O)c3ccncc3)ccc2O)c1)NC(=O)OC(C)(C)C)C(=O)NNC(=O)c1ccncc1 (stereo partly shown) [DBDY-(Met-INH)2] | high sensitivity | high sensitivity | – | – | –
5 | CC(C)(C)OC(=O)NC(Cc1ccc(O)c(-c2cc(CC(NC(=O)OC(C)(C)C)C(=O)N[C@@H](Cc3ccccc3)C(=O)NNC(=O)c3ccncc3)ccc2O)c1)C(=O)N[C@@H](Cc1ccccc1)C(=O)NNC(=O)c1ccncc1 (stereo partly shown) [DBDY-(Phe-INH)2] | high sensitivity | high sensitivity | – | – | –
6 | CC(C)[C@H](NC(=O)C(Cc1ccc(O)c(-c2cc(CC(NC(=O)OC(C)(C)C)C(=O)N[C@H](C(=O)NNC(=O)c3ccncc3)C(C)C)ccc2O)c1)NC(=O)OC(C)(C)C)C(=O)NNC(=O)c1ccncc1 (stereo partly shown) [DBDY-(Val-INH)2] | high sensitivity | high sensitivity | – | – | –
7 | CC(C)(C)OC(=O)NC(Cc1ccc(O)cc1)C(=O)NCC(=O)NNC(=O)c1ccncc1 (stereo not drawn) [Substrate G1, Boc-Tyr- Gly-INH] | – | – | 62.8 ± 2.5% | 38.7 ± 2.9 ^d % | degree of hydrolysis by Thermolysin [6]: 0.74 ± 0.02%; degree of hydrolysis by Pepsin [7]: 2.34 ± 0.45%
8 | CC(C)(C)OC(=O)NC(Cc1ccccc1)C(=O)NCC(=O)NNC(=O)c1ccncc1 (stereo not drawn) [Substrate G2, Boc-Phe-Gly-INH] | – | – | 51.0 ± 3.5% | 28.6 ± 3.4 ^d % | degree of hydrolysis by Pepsin [7]: 1.61 ± 0.05%
9 | CC(C)(C)OC(=O)NC(Cc1c[nH]c2ccccc12)C(=O)NCC(=O)NNC(=O)c1ccncc1 (stereo not drawn) [Substrate G3, Boc-Trp-Gly-INH] | – | – | 58.8 ± 6.2% | 17.3 ± 5.5 ^d % | degree of hydrolysis by Thermolysin [6]: 0.74 ± 0.05%; degree of hydrolysis by Pepsin [7]: 3.21 ± 0.45%
10 | CC(C)(C)OC(=O)NC(Cc1ccc(O)cc1)C(=O)NC(CCCCN)C(=O)NNC(=O)c1ccncc1 (stereo not drawn) [Substrate L1, Boc-Tyr-Lys-INH] | – | – | 77.4 ± 5.8% | 37.6 ± 5.2 ^e % | degree of hydrolysis by Pepsin [7]: 0.74 ± 0.04%; degree of hydrolysis by Trypsin [9]: 69.6 ± 4.1%
11 | CC(C)(C)OC(=O)NC(Cc1ccccc1)C(=O)NC(CCCCN)C(=O)NNC(=O)c1ccncc1 (stereo not drawn) [Substrate L2, Boc-Phe-Lys-INH] | – | – | 89.1 ± 2.5% | 53.2 ± 4.8 ^e % | degree of hydrolysis by Trypsin [9]: 81.2 ± 4.9%
12 | CC(C)(C)OC(=O)NC(Cc1c[nH]c2ccccc12)C(=O)NC(CCCCN)C(=O)NNC(=O)c1ccncc1 (stereo not drawn) [Substrate L3, Boc-Trp-Lys-INH] | – | – | 93.1 ± 8.9% | 58.3 ± 1.2 ^e % | degree of hydrolysis by Thermolysin [6]: 4.04 ± 0.08%; degree of hydrolysis by Trypsin [9]: 85.1 ± 3.7%
13 | Abz-Gly-Ile-Val-Arg-Ala-Lys(Dnp)-OH ([2Abz]GIVRAK(Dnp)-OH) | – | – | – | – | Km ([10]; unit inferred): 5.9 µM
14 | Abz-Phe-Arg-Dap(Dnp)-Trp-OH | – | – | – | – | Km [10]: 3 µM
15 | Abz-Phe-Phe-Dap(Dnp)-Trp-OH | – | – | – | – | Km [10]: 2.1 µM

Reference: patent US20150293106A1, “DIAROMATIC AMINO ACID SUBSTRATE FOR CATHEPSIN DETECTION” (INDUSTRY-ACADEMIC COOPERATION FOUNDATION, YONSEI UNIVERSITY, priority 2012, published 2015)
